Assay results reported in PubChem BioAssay AID743394 (Broad Institute, 2014).
Active and inactive are the calls of the source.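 The calls were made as follows: active = 40% activation versus positive control reached by fitted dose-response curve at or below highest valid tested dose; inconclusive = poor fit quality, or flat fit with activation between 30% and 70%; inactive = the rest.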

Test: Xi-linked GFP reactivating small molecules – imaging, 68-5-11 mouse fibroblasts, cherry-pick, dose response (AID 743394);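 also: sensitizer 5-aza-dC present in the wells at 0.5 mM final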
Conditions: 68-5-11 mouse fibroblast XiGFP reporter, % GFP-positive imaging, 3 d; at 19.5 µM (top of the series)

SMILES | activation
O=c1[nH]c(=O)n(CCC2=CCCCC2)c(O)c1/C=N/Nc1ccccc1 | -0.002% (inactive)
O=C(c1cccc2ccccc12)C1CCCN(Cc2ccon2)C1 (centres undefined) | 0.107% (inactive)

Same assay, conditions: 68-5-11 mouse fibroblast XiGFP reporter, % GFP-positive imaging, 3 d; at 19.5 µM (top of the series); cells co-treated with 5-aza-dC sensitizer; scaled: neutral wells 0, ellipticine wells 100

SMILES | activation
Cc1nc(NC(=O)C(Cl)Cl)sc1C(=O)N(C)C | -0.034% (inactive)
Nc1c(-c2ccccc2)c(CN2CCOCC2)nn1-c1ccc(C(=O)O)cc1 | -0.014% (inactive)
CCOC(=O)c1ccccc1NC(=O)COC(=O)C1CCN(S(=O)(=O)c2ccccc2C(=O)OC)CC1 | 1.06% (inactive)
CCOC(=O)CSc1nnc(CCCCCN2C(=O)c3cccc4cccc(c34)C2=O)o1 | 0.013% (inactive)
COc1ccc(/C=C\c2onc(C)c2S(=O)(=O)N2CCC(C(=O)NCc3ccco3)CC2)cc1 | 0.355% (inactive)
O=C(CC1C(=O)Nc2ccccc2N1CC(=O)N1CCCC1)Nc1ccc(Br)cc1 (centres undefined) | -0.001% (inactive)
CC(C)OC(=O)/C(=C\c1cccnc1)NC(=O)c1ccccc1 | -0.024% (inactive)
O=C(c1ccccc1Cl)N1CCSCCS1(=O)=O | 0.035% (inactive)
COc1ccc(C(=O)Nc2ccc3oc(-c4cccc(F)c4)nc3c2)cc1OC | 0.002% (inactive)
CC1CC(C)CN(C(=O)C(C)N2CCN(S(=O)(=O)c3ccccc3F)CC2)C1 (centres undefined) | 0.412% (inactive)
O=C1CSC(c2cccnc2)N1Cc1ccc(Cl)cc1Cl (centres undefined) | -0.022% (inactive)
NS(=O)(=O)c1cccc(NC(=O)COC(=O)Cc2ccc(S(=O)(=O)N3CCOCC3)s2)c1 | 0.056% (inactive)
CCOCCCNC(=O)C(c1ccc(C)cc1)N(Cc1cccs1)C(=O)c1ccccn1 (centres undefined) | 0.035% (inactive)
Oc1ccc(Cl)cc1C=Nc1ccc2c3c(cccc13)CC2 | 0.039% (inactive)
COc1ccc2nc(SCC(=O)Nc3ccccc3OC)[nH]c2c1 | -0.024% (inactive)
Cc1ccc(NC(=O)c2ncn(CCCNCCCN(C)C)n2)cc1C | 0.041% (inactive)
C/C=C/Cn1c(SCCCc2ccccc2)nc2c1c(=O)[nH]c(=O)n2C | -0.024% (inactive)
Cc1cc(-c2nc(C)c(-c3nnc(SCC(=O)Nc4ccc(Cl)cc4)n3C)s2)no1 | 0.023% (inactive)
Cc1cccc(NC(=O)Cn2cnc3c(oc4nc5c(cc43)COC(C)(C)C5)c2=O)c1 | 4.42% (inactive)
C=CCn1c(=S)[nH]c2scc(-c3ccco3)c2c1=O | 0.072% (inactive)
O=C(c1nc(SCc2ccc([N+](=O)[O-])cc2)n2ccccc12)C(F)(F)F | 0.007% (inactive)
O=C(Nc1c(F)cccc1F)C(c1ccccc1)c1ccccc1 | 0.013% (inactive)

SMILES | activation
O=C(Nc1ccccc1N1CCCCC1)c1cnccn1 | -0.052% (inactive)
CC1Oc2ccccc2C=C1/C=N\NC(=O)c1cccnc1 (centres undefined) | 0.047% (inactive)
O=[N+]([O-])c1ccc(S(=O)(=O)c2ccccc2)nc1 | -0.024% (inactive)
CC(O)(c1ccccc1)c1nc(-c2ccncc2)cs1 (centres undefined) | 0.105% (inactive)
Cn1c(=O)[nH]c(=O)c2c1nc1n2CCCN1Cc1ccccc1 | 0.106% (inactive)
COc1ccc(C(=O)CN2Cc3ccccc3C2=N)cc1 | 0.166% (inactive)
COc1cc(/C=C/c2ccc3cccc(O)c3n2)cc(OC)c1OC | -0.032% (inactive)
COc1ccc(N2CCN(C(CNC(=O)c3ccc4c(c3)OCO4)c3ccco3)CC2)cc1 (centres undefined) | -0.08% (inactive)
O=C(O)c1ccccc1CSc1nc2ccccc2n1Cc1ccccc1C(=O)O | 0.715% (inactive)
COc1ccc(-c2ccc(C#N)c(SCC(=O)NCc3ccco3)n2)cc1OC | 2.59% (inactive)
CC(C)c1cc(C(=O)N/N=C/c2cccnc2)cs1 | 0.54% (inactive)
CNc1ncnc(Sc2ccc(Cl)cc2)c1[N+](=O)[O-] | 0.297% (inactive)
COc1ccccc1/C=C/C(=O)OCCCN(C)C | 0.018% (inactive)
Cc1ccc(C)c(OCCC(=O)Nc2cc(S(=O)(=O)N3CCCCC3)ccc2C)c1 | -0.008% (inactive)
Cc1cccc(-c2ccc([C@@H]3[C@@H](CO)N4CCCCN(S(=O)(=O)c5ccccc5F)C[C@H]34)cc2)c1 | 0% (inactive)
CCN(CC(=O)Nc1sc2c(c1C#N)CCCC2)CC(=O)NC1CCS(=O)(=O)C1 (centres undefined) | -0.032% (inactive)
COc1cc(CNc2nc3ccccc3n2C)cc(OC)c1OC | 0.013% (inactive)
CCN(CC)c1ccc(N=Cc2ccc([N+](=O)[O-])o2)cc1 | 0.626% (inactive)
Cc1ccc(-c2ccc3c(c2)O[C@@H](CN(C)Cc2ccncc2)[C@@H](C)CN([C@@H](C)CO)S3(=O)=O)cc1 | 0% (inactive)
C[C@@H]1CCCCO[C@H](CN(C)C(=O)Nc2ccc(C(F)(F)F)cc2)[C@H](C)CN([C@H](C)CO)C(=O)c2cc(NC(=O)CCC(F)(F)F)ccc2O1 | 0.24% (inactive)
Cc1ccc(C(=O)NCc2ccccn2)cc1NC1=NC2CS(=O)(=O)CC2S1 (centres undefined) | 0.151% (inactive)
COc1ccc(-n2c(=O)n(Cc3ccccc3)c(=O)c3[nH]cnc32)cc1 | -0.053% (inactive)

SMILES | activation
CC(C)c1ccc(N2C(=O)/C(=C/N(C)C)SC2=S)cc1 | 0.088% (inactive)
Cc1cc(=O)[nH]c(N/N=C/c2cc(C)n(-c3ccccc3)c2C)n1 | -0.016% (inactive)
Cc1ccc(/C=C/C(=O)N2CCN(S(=O)(=O)/C=C/c3ccccc3)CC2)o1 | 0.382% (inactive)
COc1cccc(CNC(=O)c2ccc(NC(=O)CC3SC(N4CCCC4)=NC3=O)cc2)c1 (centres undefined) | 0.01% (inactive)
CCOC(=O)c1ccc(NC(=O)C2CCC(CNc3c(N4CCOCC4)c(=O)c3=O)CC2)cc1 (centres undefined) | 0.016% (inactive)
CCOc1ccc(N2C(=O)CC(Sc3nc(O)c(CC)c(=O)[nH]3)C2=O)cc1 (centres undefined) | 0.001% (inactive)
Cc1cc(=O)[nH]c(N/N=C/c2cc(C)n(CC(F)(F)F)c2C)n1 | 0.184% (inactive)
CC1CN(Cc2c(O)ccc3c2oc(=O)c2ccccc23)CC(C)O1 (centres undefined) | -0.012% (inactive)
NNC(=O)/C(=C\c1ccc(Br)cc1)NC(=O)c1cccs1 | -0.053% (inactive)
CN(C)CCN(C(=O)c1ccc(S(=O)(=O)N(C)c2ccccc2)cc1)c1nc2cc3c(cc2s1)OCCO3 | -0.008% (inactive)
O=c1c(Cl)c(Cl)cnn1Cc1nnc(-c2ccccc2Br)o1 | -0.053% (inactive)
COc1ccc(NS(=O)(=O)c2ccc(NC(C)=O)cc2)nn1 | 0.042% (inactive)
O=C(OCc1cc(=O)n2c(n1)sc1ccccc12)c1ccc(O)cc1O | 0.076% (inactive)
COc1ccc(-c2ccc(C3[C@@H]4CN(S(=O)(=O)c5ccccc5C)C[C@H]3N4)cc2)cc1 (some centres undefined) | 0% (inactive)
COc1ccc(S(=O)(=O)N(C)C[C@H]2OCCCC[C@@H](C)Oc3ccc(NC(=O)NC(C)C)cc3C(=O)N([C@@H](C)CO)C[C@H]2C)cc1 | -0.013% (inactive)
O=C(O)/C=C/C(=O)Nc1ccc(-n2nccc2C(F)(F)F)cc1 | 1.34% (inactive)
Cc1cccc2sc(N(CCCN(C)C)C(=O)CN3C(=O)c4ccccc4C3=O)nc12 | -0.047% (inactive)
Cc1n[nH]c(=S)n(/N=C/c2cccc([N+](=O)[O-])c2)c1=O | -0.091% (inactive)
O=C(CCl)N=c1sccn1Cc1ccc(Cl)cc1Cl | 0.591% (inactive)
CCOC(=O)C1CCN(C(=O)c2ccc(NS(=O)(=O)c3ccc(F)cc3C)cc2)CC1 | 0.035% (inactive)
CCCCC(=O)N(C)c1c(CC)nc2c(OCC(=O)c3ccc(F)cc3)cccn12 | -0.039% (inactive)
CN(c1ccccc1)S(=O)(=O)c1ccc(C(=O)NCC(c2ccco2)N2CCCCC2)cc1 (centres undefined) | -0.009% (inactive)

SMILES | activation
Cc1n[nH]c(=S)n1/N=C/c1ccc(-c2ccc(Cl)cc2)o1 | 1.87% (inactive)
CC(=O)N(C)C[C@@H]1Oc2ncc(-c3cccnc3)cc2C(=O)N([C@@H](C)CO)C[C@@H]1C | 0.082% (inactive)
CCOC(=O)Cc1c(C)[nH]n(-c2ccccc2)c1=O | 0.085% (inactive)
CN(C)c1ccc(NC2=C(Cl)C(=O)c3ccccc3C2=O)cc1 | -0.053% (inactive)
Cc1ccc(-c2nc3ccc(Br)cn3c2Cc2ccccc2C(F)(F)F)cc1 | 0.06% (inactive)
CN(C1CCCCC1)S(=O)(=O)c1ccc(C(=O)N2CCN(c3nc4ccccc4s3)CC2)cc1 | 0.125% (inactive)
CC(C)n1c(NCc2cc(Cl)ccc2O)nc2ccccc21 | -0.029% (inactive)
Cc1cccc(NCc2ccc(O)c3ncccc23)c1C | 0.288% (inactive)
CC(=NNC(=S)Nc1cccc(Cl)c1)c1ccccn1 | -0.035% (inactive)
COc1ccc(OC)c(NC(=O)Nc2ccc3[nH]ccc3c2)c1 | -0.035% (inactive)
COCCNC(=O)CSc1nc2scc(-c3ccccc3)c2c(=O)[nH]1 | -0.001% (inactive)
CNc1ccc([N+](=O)[O-])cc1C(=O)O | 0.697% (inactive)
COC(=O)c1ccc(CNC(=O)COC(=O)c2cc(Cl)ccc2O)cc1 | 0.385% (inactive)
O=C(Nc1cccc(C(=O)O)c1)/C(=C\c1ccccc1)NC(=O)c1ccc(Br)o1 | 0.02% (inactive)
COc1ccccc1NC(=O)N[C@H]1C=C[C@@H](CC(=O)N[C@@H](C)c2ccccc2)O[C@@H]1CO | -0.011% (inactive)
CN(C)C(=O)CN1CCN(Cc2nc(CC3CC3)no2)CC1 | -0.032% (inactive)
Cc1[nH]c2ccc(Br)cc2c(=O)c1CN1CCCCCC1 | -0.013% (inactive)
O=C(NCc1ccccc1)c1ccccc1Br | 0.035% (inactive)
COC(=O)Nc1ccc(S(=O)(=O)N2CCCC(C(=O)N3CCN(C)CC3)C2)cc1 (centres undefined) | 0.221% (inactive)
COc1ccc(OCCN2CCC(C(=O)NC(c3ccc(C)cc3)c3ccccn3)CC2)cc1 (centres undefined) | 0.883% (inactive)

Same assay, conditions: 68-5-11 mouse fibroblast XiGFP reporter, % GFP-positive imaging, 3 d; at 21 µM (top of the series); cells co-treated with 5-aza-dC sensitizer; scaled: neutral wells 0, ellipticine wells 100

SMILES | activation
COc1ccc(S(=O)(=O)N(C)C[C@@H]2OCc3cn(nn3)CCCC(=O)N([C@@H](C)CO)C[C@@H]2C)cc1 | 0.05% (inactive)
